According to PubChem BioAssay (NCI):
Values joined by “and” are separate entries in the source; they are usually repeats but may differ in a detail not shown here. Identical values can stand only once.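 How tested: cells in 96-well plates exposed to compound for 48 hours at five concentrations. Here, GI50 denotes the concentration required for 50% inhibition of growth. TGI marks complete inhibition of growth.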

Tests used:
Test in all cases: growth of human tumour cells (NCI), 48 h
MDA-MB-231 breast = test system: MDA-MB-231 breast
OVCAR-5 ovarian = test system: OVCAR-5 ovarian
COLO 205 colon = test system: COLO 205 colon
HOP-62 NSCLC = test system: HOP-62 NSCLC
U251 CNS = test system: U251 CNS
786-0 renal = test system: 786-0 renal
CAKI-1 renal = test system: CAKI-1 renal
LOX IMVI melanoma = test system: LOX IMVI melanoma
A498 renal = test system: A498 renal
SK-MEL-5 melanoma = test system: SK-MEL-5 melanoma
SF-268 CNS = test system: SF-268 CNS
RPMI-8226 leukemia = test system: RPMI-8226 leukemia
A549 NSCLC = test system: A549 NSCLC
NCI-H226 lung = test system: NCI-H226 lung
SW-620 colon = test system: SW-620 colon
UACC-62 melanoma = test system: UACC-62 melanoma
MALME-3M melanoma = test system: MALME-3M melanoma
SN12C renal = test system: SN12C renal

SMILES | TGI (MDA-MB-231 breast) [µM] | TGI (OVCAR-5 ovarian) [µM] | TGI (COLO 205 colon) [µM] | TGI (HOP-62 NSCLC) [µM] | TGI (U251 CNS) [µM] | TGI (786-0 renal) [µM] | TGI (CAKI-1 renal) [µM] | TGI (LOX IMVI melanoma) [µM] | TGI (A498 renal) [µM] | TGI (SK-MEL-5 melanoma) [µM] | TGI (SF-268 CNS) [µM] | TGI (RPMI-8226 leukemia) [µM] | TGI (A549 NSCLC) [µM] | TGI (NCI-H226 lung) [µM] | TGI (SW-620 colon) [µM] | TGI (UACC-62 melanoma) [µM] | TGI (MALME-3M melanoma) [µM] | TGI (SN12C renal) [µM] | GI50 (NCI-H226 lung)
CN(C)C(=O)OC(Cn1cncn1)(Cn1cncn1)c1ccc(Cl)cc1Cl | > 100 | > 100 | > 100 | > 100 | > 100 | > 100 | > 100 | > 100 | > 100 | > 100 | > 100 | > 100 | > 100 | > 100 | > 100 |  |  |  | 
COc1ccc(OC)c(NS(=O)(=O)c2ccc3nc(C)n(NS(=O)(=O)c4cc(OC)ccc4OC)c(=O)c3c2)c1 | > 100 | > 100 | > 100 | > 100 | > 100 | > 100 | > 100 | > 100 | > 100 | > 100 | > 100 | > 100 |  | > 100 | > 100 | > 100 | > 100 | > 100 | 
COc1ccc(C2C3COc4ccccc4C3=NN2c2ccccc2)cc1 (centres undefined) | > 100 | > 100 | > 100 | > 100 | > 100 | > 100 | > 100 | > 100 | > 100 | > 100 | > 100 | > 100 | > 100 | > 100 | > 100 | > 100 | > 100 |  | 
C=C1C(=O)O[C@H]2[C@@H](O)[C@H](C)CCC[C@]3(C)O[C@H]3CC[C@@]3(C)O[C@@H]3C[C@@H]12 | 10.8 | 12.5 | 10.3 | 14.3 | 15.7 | 12.5 | 13 |  | 14.4 | 10.5 | 14.9 | 50 | 18.3 | 14.5 | 5.05 | 8.8 |  | 13.2 | 
O=C(Cc1ccccc1)Nn1c(-c2ccccc2)nc2ccccc2c1=O | > 100 | > 100 | > 100 | > 100 | > 100 | > 100 |  | > 100 | > 100 | > 100 | > 100 | > 100 | > 100 | > 100 | > 100 | > 100 | > 100 | > 100 | 
COc1ccc(C2SCC(=O)N2NC(=O)c2ccc(NC(C)=O)cc2)cc1 (centres undefined) | > 100 | > 100 | > 100 | > 100 | > 100 | > 100 |  |  | > 100 | > 100 | > 100 | > 100 | > 100 | > 100 | > 100 | > 100 |  | > 100 | 
CC1=Nc2sc3c(c2C2=NCCN12)CCCC3 | 71.2 | 92 | 79.1 | > 100 | 70.7 | 46 | 50.6 | 36.8 | 90.6 | 77.4 | > 100 | 46.9 |  | 31.2 | 52.9 | 32 | 71.3 | 69.6 | 
O=c1[nH]nc(Cc2ccccc2)n1CCO | > 100 | > 100 | > 100 |  | > 100 | > 100 | > 100 | > 100 | > 100 | > 100 | > 100 | > 100 | > 100 | > 100 | > 100 | > 100 | > 100 | > 100 | 
Clc1ccc(C(SCc2ccccc2)SCc2ccccc2)cc1 | > 10 |  | > 10 | > 10 | > 10 | > 10 | > 10 | > 10 | > 10 | > 10 | > 10 | > 10 | > 10 | > 10 | > 10 | > 10 | > 10 | > 10 | 
CCOC(=O)CC(=O)Nc1cccc2[nH]cnc12 | > 100 | > 100 | > 100 | > 100 | > 100 | > 100 | > 100 |  | > 100 | > 100 | > 100 | > 100 | > 100 | > 100 | > 100 | > 100 | > 100 | > 100 | 
CC(=O)OCC1OC(Oc2cc(C)c(O)cc2C/C=C(\C)CC/C=C(\C)CC(=O)CC(C)C)C(O)C(OC(C)=O)C1OC(C)=O (centres undefined) | 31.1 | > 50 | 17.3 | 40 | 41.9 | > 50 | > 50 | 32.7 | 27.6 | 14.9 | > 50 | 21.4 | 20.3 |  | 24.6 | 39.1 | > 50 | 40.3 | 
O=C(CNc1ccccc1[N+](=O)[O-])Nn1c(-c2ccccc2)nc2ccccc2c1=O | 29.1 | 41.3 | 53.9 | 42.8 | 40.6 | 34.5 |  | 24.7 | 81.1 | 22.1 | > 100 | 89.5 | > 100 | 93 | 42.2 | 23.4 | 40.6 | 63.1 | 
N#Cc1c(-c2ccccc2)[nH]c(=O)n(C2OC(CO)C(O)C(O)C2O)c1=O (centres undefined) | > 100 | > 100 | > 100 | > 100 | > 100 | > 100 | > 100 |  | > 100 | > 100 | > 100 | > 100 | > 100 | > 100 | > 100 | > 100 |  | > 100 | > 100 µM and 45.4 µM
CC(C)C(/C=C/c1ccc(Cl)c(Cl)c1)=N\NC(=O)N/N=C(/C=C/c1ccc(Cl)c(Cl)c1)C(C)C | > 100 | > 100 | > 100 | > 100 | > 100 | > 100 | > 100 | > 100 | > 100 | > 100 | > 100 | > 100 |  | > 100 | > 100 | > 100 | > 100 | > 100 | 
CCCCON1C[C@H](OC(C)=O)C(OC(C)=O)[C@H](OC(C)=O)C1 (some centres undefined) | > 100 |  | > 100 | > 100 | > 100 | > 100 | > 100 | > 100 | > 100 | > 100 | > 100 | > 100 | > 100 | > 100 |  | > 100 | > 100 | > 100 | 
CC(=O)OC[C@@H](OC(C)=O)[C@H](OC(C)=O)[C@@H]1OC(C)(C)O[C@@H]1C1SCCCS1 | > 100 | > 100 | > 100 | > 100 | > 100 | > 100 | > 100 | > 100 | > 100 | > 100 | > 100 | > 100 | > 100 |  | > 100 | > 100 | > 100 |  | 
NC1=CN2c3ccccc3N(CC(=O)O)C2C=C1 (centres undefined) | > 100 | > 100 | > 100 | > 100 | > 100 | > 100 | > 100 | > 100 | > 100 | > 100 | > 100 | > 100 | > 100 | > 100 | > 100 | > 100 | > 100 |  | 
CN(/N=C/c1ccnc2ccccc12)c1ccc(Cl)cc1[N+](=O)[O-] | > 100 | > 100 | > 100 | > 100 | > 100 | > 100 | > 100 |  | > 100 | > 100 | > 100 |  | > 100 | > 100 | > 100 | > 100 | > 100 | > 100 | 
CCNC(=O)c1c(O)c2ccccc2[nH]c1=O | > 100 | > 100 | > 100 | > 100 | > 100 | > 100 | > 100 | > 100 | > 100 | > 100 | > 100 | > 100 | > 100 | > 100 | > 100 |  | > 100 | > 100 | 
C=CCO[C@]1(CC=C)C(=O)C(=O)OC1C1COC(C)(C)O1 (some centres undefined) | > 100 | > 100 | 37.5 | > 100 | > 100 | > 100 | 41.9 | 31.5 | > 100 | 97.6 | > 100 | 73 | > 100 | > 100 | 35.4 |  | 32.3 | > 100 | 
CCOC(=O)CNc1nc(=O)c2c(=O)oc(Cl)cc2o1 | 59.1 | 38.7 | > 100 | 53.3 | 85.3 | 21.9 | 29.1 | 22.3 | 38 | > 100 | 27.9 |  | 40.6 | > 100 | 85.6 | 39.9 | 23.5 | 53.1 | 
O=C(N/N=C(/COc1ccc([N+](=O)[O-])cc1)N=Cc1ccncc1)c1ccncc1 | > 100 | > 100 | > 100 | > 100 | > 100 | > 100 | > 100 | > 100 | > 100 |  | > 100 | > 100 | > 100 | > 100 | > 100 | > 100 | > 100 | > 100 | 
COc1cc2cc(C(=O)N3CC(CCl)c4c3cc(N)c3ccccc43)[nH]c2c(OC)c1OC (centres undefined) | 0.519 |  | < 0.01 | < 0.0109 | 0.0998 | 0.0102 | < 0.01 | 0.0103 | < 0.01 |  | < 0.01 | < 0.0107 | 1.4 | 1.13 | > 100 | < 0.01 | < 0.01 | < 0.01 | 
Cc1ccc2oc(=O)c(C(=O)Nc3nc(C45CC6CC(CC(C6)C4)C5)cs3)cc2c1 | > 100 | > 100 | > 100 | > 100 | > 100 | > 100 | > 100 | > 100 | > 100 | > 100 | > 100 | > 100 | > 100 | > 100 | > 100 |  | > 100 | > 100 | 
Clc1ccc(C2Nc3ccccc3C3=NCCN32)cc1 (centres undefined) | > 100 | > 100 | 25.7 | > 100 | 78.6 | 48.9 | > 100 | 36.2 | 63.7 | 34.4 | 84.5 | 42.4 | > 100 |  | 98.6 | 32.3 | 32.1 | > 100 | 
Cc1ccc2nc(-c3ccc(N4C(=O)C(Cl)C4c4ccc(Cl)cc4)cc3)sc2c1 (centres undefined) | 33 | 45.3 | 27.8 | 61.7 | 42.4 | 56.9 | 35.6 | 18.7 |  | 28.2 | 68 | 38.6 | 36.9 | 36 | 48 | 31.3 | > 100 | 53.6 | 
COc1cc2c(=O)cnoc2cc1O | > 100 | > 100 | > 100 |  | > 100 | > 100 | > 100 |  | > 100 | > 100 | > 100 | > 100 | > 100 | > 100 | > 100 | > 100 | > 100 | > 100 | 
